Source: PubChem BioAssay AID2060491 (Molecular Pharmacology Branch, DTP, NCI, 2025)

Tested on: 857933-349-R-J2-PDC complex spheroids, viability
Experiment: Anticancer human tumor 857933-349-R-J2-PDC patient-derived colon adenocarcinoma cell line growth inhibition [GQUAD]
Details: for IC50: curve of first compound; for viability, T/C: stronger effect = lower value
Excerpt: DNA G-quadruplex Stabilizer Agents in Combinations in Complex Spheroids
A high-throughput screen of multi-cell type tumor spheroids was designed to identify active combinations of DNA G-quadruplex stabilizer agents and targeted small molecules. Complex spheroids include a stromal component modeled by human endothelial cells (HUVEC) and fibroblasts modeled by human mesenchymal stem cells (MSCs). The concentration ranges selected for each drug and investigational agent were based upon clinically achievable concentrations if the clinical Cmax of the agent was known.
Compounds. The drugs and investigational agents: pidnarulex (CX-5461; NSC782164), APTO-253 (NSC789042), BRACO-19 (NSC847499), peposertib (NSC802822), ceralasertib (NSC780249), elimusertib (NSC800525), camonsertib (NSC841442), AZD-1390 (NSC803789), olaparib (NSC753686), talazoparib (NSC767125), ART-558 (NSC835418), sotorasib (NSC818433), MRTX-1133 (NSC836407), SN-38 (NSC673596), topotecan (NSC609699), etoposide (NSC141540), doxorubicin (NSC123127), gemcitabine (NSC613327), 5-fluorouracil (NSC19893), paclitaxel (NSC125973), vemurafenib (NSC761431), panobinostat (NSC761190), R-306465 (JNJ-16241199; NSC773264), adavosertib (NSC754352), TP-3654 (NSC805149), carboplatin (NSC241240), KSQ-4279 (NSC840948), and staurosporine (NSC755774) were obtained from the National Cancer Institute (NCI) Developmental Therapeutics Program Chemical Repository (34). The FDA-approved anticancer drug set is available from the NCI Developmental Therapeutics Program. […] The stock solutions were prepared in dimethyl sulfoxide (DMSO, Sigma-Aldrich, St. Louis, MO, cat. D2650) at 800-fold the tested concentration and stored at -70 degrees C prior to their use. All drugs and investigational agents were tested over a range starting from a high concentration at or near the clinical Cmax and decreasing in half-log increments. If the clinical Cmax for an agent had not been determined, the highest concentration tested was 10 microM.
2.3 Cell Culture. All cells were maintained in an incubator at 37 degrees C and 5% CO2 with 95% humidity. The PDC lines were cultured according to standard operating procedures established by the NCI PDMR. All PDCs were thawed and cultured in Matrigel-coated flasks prepared with a working solution of 1X Ham's F-12 nutrient mix, without supplementation (Invitrogen, cat. 11765054), 100 U/mL penicillin-streptomycin (Invitrogen, cat. 15140122), and 2.5% Matrigel (Corning Inc., cat. 354248) for the first three passages. The 857933-349-R-J2-PDC line was cultured in 6C/Colon 1B media, which includes advanced DMEM/F-12 (Thermo Fisher Scientific, cat. 12634028), 10 mM HEPES (Thermo Fisher Scientific, cat. 15630080), 1X GlutaMAX supplement (Thermo Fisher Scientific, cat. 35050061), 0.1 mg/mL primocin (InvivoGen, cat. ant-pm-2), 10% defined fetal bovine serum, heat inactivated (HyClone Laboratories Inc., cat. SH30070.03HI), 50% L-WRN conditioned media (ATCC, cat. CRL-3276), 1.25 mM N-Acetyl-L-cysteine (Sigma-Aldrich, cat. A9165), 10 mM nicotinamide (Sigma-Aldrich, cat. N0636), 1X B-27 supplement (Thermo Fisher Scientific, cat. 17504044), 1X N-2 supplement (Thermo Fisher Scientific, cat. 17502048), 10 microM Y-27632 dihydrochloride (Tocris Bioscience, cat. 1254), and 50 ng/mL human EGF recombinant protein (Thermo Fisher Scientific, cat. PHG0311). The 485176-168-R4-J1-PDC line was cultured in Panc media, which includes all 6C/Colon 1B media components plus 100 ng/mL human FGF-10 (Thermo Fisher Scientific, cat. 100-26), 500 nM SB-431542 (Selleckchem, cat. S1067), and gastrin (Tocris, cat. 3006).
[…]
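Also: spheroids exposed to compounds for one week before readout.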
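For viability, T/C in this document: percent viability relative to vehicle DMSO wells taken as 100%.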

CC1COCCN1c1cc(-c2ccnn2C)c2ccnc(-c3ccn[nH]3)c2n1 (configuration not stated) + Cc1[nH]c2ccc(F)cc2c1-c1nc2c3cccnc3c3ncccc3c2[nH]1
IC50 (second compound 0.0316 µM): 0.25 µM | IC50 (second compound 0.1 µM): 0.491 µM | IC50 (second compound 0.316 µM): 0.327 µM | IC50 (second compound 1 µM): 0.28 µM | IC50 (second compound 3.16 µM): 0.197 µM | IC50 (second compound 10 µM): 0.277 µM | viability, T/C (second compound 0.0316 µM, first compound 0.0316 µM): 73.7% | viability, T/C (second compound 0.0316 µM, first compound 0.1 µM): 53.2% | viability, T/C (second compound 0.0316 µM, first compound 0.316 µM): 50.3% | viability, T/C (second compound 0.0316 µM, first compound 1 µM): 43.8% | viability, T/C (second compound 0.0316 µM, first compound 3.16 µM): 55.3% | viability, T/C (second compound 0.0316 µM, first compound 10 µM): 44.8% | viability, T/C (second compound 0.1 µM, first compound 0.0316 µM): 69.6% | viability, T/C (second compound 0.1 µM, first compound 0.1 µM): 70.9% | viability, T/C (second compound 0.1 µM, first compound 0.316 µM): 53.2% | viability, T/C (second compound 0.1 µM, first compound 1 µM): 43.5% | viability, T/C (second compound 0.1 µM, first compound 3.16 µM): 46.9% | viability, T/C (second compound 0.1 µM, first compound 10 µM): 44.2% | viability, T/C (second compound 0.316 µM, first compound 0.0316 µM): 71.7% | viability, T/C (second compound 0.316 µM, first compound 0.1 µM): 56.6% | viability, T/C (second compound 0.316 µM, first compound 0.316 µM): 49.2% | viability, T/C (second compound 0.316 µM, first compound 1 µM): 48.8% | viability, T/C (second compound 0.316 µM, first compound 3.16 µM): 47.4% | viability, T/C (second compound 0.316 µM, first compound 10 µM): 46.6% | viability, T/C (second compound 1 µM, first compound 0.0316 µM): 61% | viability, T/C (second compound 1 µM, first compound 0.1 µM): 61.5% | viability, T/C (second compound 1 µM, first compound 0.316 µM): 48.6% | viability, T/C (second compound 1 µM, first compound 1 µM): 43.1% | viability, T/C (second compound 1 µM, first compound 3.16 µM): 52.8% | viability, T/C (second compound 1 µM, first compound 10 µM): 50.1% | viability, T/C (second compound 3.16 µM, first compound 0.0316 µM): 75.2% | viability, T/C (second compound 3.16 µM, first compound 0.1 µM): 56% | viability, T/C (second compound 3.16 µM, first compound 0.316 µM): 45% | viability, T/C (second compound 3.16 µM, first compound 1 µM): 43.8% | viability, T/C (second compound 3.16 µM, first compound 3.16 µM): 44.6% | viability, T/C (second compound 3.16 µM, first compound 10 µM): 44.7% | viability, T/C (second compound 10 µM, first compound 0.0316 µM): 74.4% | viability, T/C (second compound 10 µM, first compound 0.1 µM): 57% | viability, T/C (second compound 10 µM, first compound 0.316 µM): 50.4% | viability, T/C (second compound 10 µM, first compound 1 µM): 43.1% | viability, T/C (second compound 10 µM, first compound 3.16 µM): 46.1% | viability, T/C (second compound 10 µM, first compound 10 µM): 42.6%
